# Columns and labels:
# Test in all cases: KINOMEscan scanMAX
# Type in all cases: binding
# Settings in all cases: read-out: Percent Control
# YANK3 = biological target: T1, YANK3 (Homo sapiens, UniProt Q86UX6)
# T1 construct: purchased Eurofins Discovery (DiscoverX KINOMEscan scanMAX)
# Protocol: (§1) The kinome-wide binding assay was performed by Eurofins Discovery using the scanMAX screening platform. More information can be found on the Eurofins Discovery Web site.
# NEK11 = biological target: T2, NEK11 (Homo sapiens, UniProt Q8NG66)
# T2 construct: purchased Eurofins Discovery (DiscoverX KINOMEscan scanMAX)
# T2 sequence (Q8NG66 whole entry): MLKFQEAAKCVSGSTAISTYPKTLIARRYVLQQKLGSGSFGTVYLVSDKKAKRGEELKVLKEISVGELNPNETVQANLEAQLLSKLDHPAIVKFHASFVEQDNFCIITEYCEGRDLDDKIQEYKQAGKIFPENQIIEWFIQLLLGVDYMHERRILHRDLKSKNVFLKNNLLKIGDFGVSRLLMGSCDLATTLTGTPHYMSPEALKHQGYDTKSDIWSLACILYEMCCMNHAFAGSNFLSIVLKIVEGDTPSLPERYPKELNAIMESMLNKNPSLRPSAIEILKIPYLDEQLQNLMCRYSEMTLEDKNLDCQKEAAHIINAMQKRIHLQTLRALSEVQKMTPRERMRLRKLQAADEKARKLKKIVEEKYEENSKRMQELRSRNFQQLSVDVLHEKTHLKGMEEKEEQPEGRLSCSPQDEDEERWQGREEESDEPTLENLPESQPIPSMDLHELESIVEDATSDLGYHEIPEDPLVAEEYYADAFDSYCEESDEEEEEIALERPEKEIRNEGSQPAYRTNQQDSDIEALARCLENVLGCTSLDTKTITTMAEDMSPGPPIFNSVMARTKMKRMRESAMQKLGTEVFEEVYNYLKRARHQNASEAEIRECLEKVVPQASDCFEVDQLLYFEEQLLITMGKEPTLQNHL
# Protocol: as §1
# EPHB4 = biological target: T3, EPHB4 (Homo sapiens, UniProt P54760)
# T3 construct: purchased Eurofins Discovery (DiscoverX KINOMEscan scanMAX)
# Protocol: as §1
# RIOK2 = biological target: T4, RIOK2 (Homo sapiens, UniProt Q9BVS4)
# T4 construct: purchased Eurofins Discovery (DiscoverX KINOMEscan scanMAX)
# Protocol: as §1
# PHKG1 = biological target: T5, PHKG1 (Homo sapiens, UniProt Q16816)
# T5 construct: purchased Eurofins Discovery (DiscoverX KINOMEscan scanMAX)
# Protocol: as §1
# DYRK1A = biological target: T6, DYRK1A (Homo sapiens, UniProt Q13627)
# T6 construct: purchased Eurofins Discovery (DiscoverX KINOMEscan scanMAX)
# Protocol: as §1
# CAMKK1 = biological target: T7, CAMKK1 (Homo sapiens, UniProt Q8N5S9)
# T7 construct: purchased Eurofins Discovery (DiscoverX KINOMEscan scanMAX)
# Protocol: as §1
# WNK1 = biological target: T8, WNK1 (Homo sapiens, UniProt Q9H4A3)
# T8 construct: purchased Eurofins Discovery (DiscoverX KINOMEscan scanMAX)
# Protocol: as §1
# SNRK = biological target: T9, SNRK (Homo sapiens, UniProt Q9NRH2)
# T9 construct: purchased Eurofins Discovery (DiscoverX KINOMEscan scanMAX)
# Protocol: as §1
# PKMYT1 = biological target: T10, PKMYT1 (Homo sapiens, UniProt Q99640)
# T10 construct: purchased Eurofins Discovery (DiscoverX KINOMEscan scanMAX)
# Protocol: as §1
# DCAMKL2 = biological target: T11, DCAMKL2 (Homo sapiens, UniProt Q8N568)
# T11 construct: purchased Eurofins Discovery (DiscoverX KINOMEscan scanMAX)
# T11 sequence (Q8N568 whole entry): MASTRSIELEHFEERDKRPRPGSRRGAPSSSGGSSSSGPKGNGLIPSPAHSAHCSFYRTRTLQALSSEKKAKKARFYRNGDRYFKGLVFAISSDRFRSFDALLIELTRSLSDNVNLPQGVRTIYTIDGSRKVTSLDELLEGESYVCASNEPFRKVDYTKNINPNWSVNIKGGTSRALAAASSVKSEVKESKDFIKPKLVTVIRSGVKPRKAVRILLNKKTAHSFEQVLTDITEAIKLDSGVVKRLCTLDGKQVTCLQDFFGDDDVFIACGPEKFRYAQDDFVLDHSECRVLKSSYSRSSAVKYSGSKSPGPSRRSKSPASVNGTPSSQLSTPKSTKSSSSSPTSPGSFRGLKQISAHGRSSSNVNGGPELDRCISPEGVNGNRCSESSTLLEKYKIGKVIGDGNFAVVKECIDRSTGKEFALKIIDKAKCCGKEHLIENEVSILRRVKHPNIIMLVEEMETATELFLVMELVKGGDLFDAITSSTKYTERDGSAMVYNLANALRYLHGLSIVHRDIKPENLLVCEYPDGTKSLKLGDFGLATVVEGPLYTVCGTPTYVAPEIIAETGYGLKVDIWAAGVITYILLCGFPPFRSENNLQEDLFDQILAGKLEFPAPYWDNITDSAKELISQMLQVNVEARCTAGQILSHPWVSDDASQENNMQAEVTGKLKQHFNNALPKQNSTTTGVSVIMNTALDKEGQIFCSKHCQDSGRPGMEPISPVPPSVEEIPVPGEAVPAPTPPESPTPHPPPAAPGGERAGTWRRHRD
# Protocol: as §1
# MAP3K15 = biological target: T12, MAP3K15 (Homo sapiens, UniProt Q6ZN16)
# T12 construct: purchased Eurofins Discovery (DiscoverX KINOMEscan scanMAX)
# Protocol: as §1
# [1] = biological target: T13, RSK2(Kin.Dom.2-C-terminal) (Homo sapiens, UniProt P51812)
# T13 construct: RSK2(Kin.Dom.2-C-terminal); purchased Eurofins Discovery (DiscoverX KINOMEscan scanMAX)
# Protocol: as §1
# HIPK4 = biological target: T14, HIPK4 (Homo sapiens, UniProt Q8NE63)
# T14 construct: purchased Eurofins Discovery (DiscoverX KINOMEscan scanMAX)
# Protocol: as §1
# MET(M1250T) = biological target: T15, MET(M1250T) (Homo sapiens, UniProt P08581, M1250T)
# T15 construct: purchased Eurofins Discovery (DiscoverX KINOMEscan scanMAX)
# T15 sequence (P08581 25-1390 M1250T): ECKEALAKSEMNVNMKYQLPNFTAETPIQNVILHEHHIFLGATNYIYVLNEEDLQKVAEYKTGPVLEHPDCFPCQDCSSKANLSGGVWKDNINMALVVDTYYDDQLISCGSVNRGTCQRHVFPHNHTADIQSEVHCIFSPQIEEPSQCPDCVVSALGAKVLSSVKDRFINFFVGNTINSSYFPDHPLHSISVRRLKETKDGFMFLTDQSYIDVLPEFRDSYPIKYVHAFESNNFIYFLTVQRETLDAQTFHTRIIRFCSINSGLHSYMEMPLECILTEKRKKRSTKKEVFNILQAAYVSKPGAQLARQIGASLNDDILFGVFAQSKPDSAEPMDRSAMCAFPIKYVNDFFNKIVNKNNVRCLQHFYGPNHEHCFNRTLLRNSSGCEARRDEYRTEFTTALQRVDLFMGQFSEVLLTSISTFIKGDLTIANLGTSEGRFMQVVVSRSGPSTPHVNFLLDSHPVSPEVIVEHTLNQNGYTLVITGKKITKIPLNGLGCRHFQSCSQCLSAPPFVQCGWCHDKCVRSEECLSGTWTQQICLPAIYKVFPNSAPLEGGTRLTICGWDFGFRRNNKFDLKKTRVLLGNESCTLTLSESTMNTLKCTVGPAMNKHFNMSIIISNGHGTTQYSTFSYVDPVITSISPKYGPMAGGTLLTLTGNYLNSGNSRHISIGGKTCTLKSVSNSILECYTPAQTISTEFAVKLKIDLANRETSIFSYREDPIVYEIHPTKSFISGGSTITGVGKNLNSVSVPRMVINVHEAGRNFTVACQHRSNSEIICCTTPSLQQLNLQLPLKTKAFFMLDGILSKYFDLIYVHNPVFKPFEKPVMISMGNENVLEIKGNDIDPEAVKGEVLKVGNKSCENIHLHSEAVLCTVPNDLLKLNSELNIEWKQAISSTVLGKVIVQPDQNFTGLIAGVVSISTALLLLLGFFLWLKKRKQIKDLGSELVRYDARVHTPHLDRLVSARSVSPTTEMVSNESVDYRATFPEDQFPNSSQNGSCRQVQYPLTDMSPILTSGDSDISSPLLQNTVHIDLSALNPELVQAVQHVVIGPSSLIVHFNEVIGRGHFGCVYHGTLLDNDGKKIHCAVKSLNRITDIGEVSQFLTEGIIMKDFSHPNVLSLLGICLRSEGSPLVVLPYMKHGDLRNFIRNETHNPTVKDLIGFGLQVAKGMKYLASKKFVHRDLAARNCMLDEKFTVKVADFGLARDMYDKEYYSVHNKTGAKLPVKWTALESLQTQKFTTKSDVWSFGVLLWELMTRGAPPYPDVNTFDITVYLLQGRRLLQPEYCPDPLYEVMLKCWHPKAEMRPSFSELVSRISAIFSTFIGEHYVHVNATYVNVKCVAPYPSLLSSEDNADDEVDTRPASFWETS
# Protocol: as §1
# PRKD1 = biological target: T16, PRKD1 (Homo sapiens, UniProt Q15139)
# T16 construct: purchased Eurofins Discovery (DiscoverX KINOMEscan scanMAX)
# Protocol: as §1
# MLK2 = biological target: T17, MLK2 (Homo sapiens, UniProt Q02779)
# T17 construct: purchased Eurofins Discovery (DiscoverX KINOMEscan scanMAX)
# Protocol: as §1
# EGFR(L858R) = biological target: T18, EGFR(L858R) (Homo sapiens, UniProt P00533, L858R)
# T18 construct: purchased Eurofins Discovery (DiscoverX KINOMEscan scanMAX)
# Protocol: as §1
# CIT = biological target: T19, CIT (Homo sapiens, UniProt O14578)
# T19 construct: purchased Eurofins Discovery (DiscoverX KINOMEscan scanMAX)
# Protocol: as §1
# PRKG2 = biological target: T20, PRKG2 (Homo sapiens, UniProt Q13237)
# T20 construct: purchased Eurofins Discovery (DiscoverX KINOMEscan scanMAX)
# Protocol: as §1
# MET(Y1235D) = biological target: T21, MET(Y1235D) (Homo sapiens, UniProt P08581, Y1235D)
# T21 construct: purchased Eurofins Discovery (DiscoverX KINOMEscan scanMAX)
# Protocol: as §1
# CAMK2G = biological target: T22, CAMK2G (Homo sapiens, UniProt Q13555)
# T22 construct: purchased Eurofins Discovery (DiscoverX KINOMEscan scanMAX)
# Protocol: as §1
# [2] = biological target: T23, TYK2(JH1domain-catalytic) (Homo sapiens, UniProt P29597)
# T23 construct: TYK2(JH1domain-catalytic); purchased Eurofins Discovery (DiscoverX KINOMEscan scanMAX)
# Protocol: as §1
# KIT(V559D,V654A) = biological target: T24, KIT(V559D,V654A) (Homo sapiens, UniProt P10721, V559D/V654A)
# T24 construct: purchased Eurofins Discovery (DiscoverX KINOMEscan scanMAX)
# T24 sequence (P10721 26-976 V559D/V654A): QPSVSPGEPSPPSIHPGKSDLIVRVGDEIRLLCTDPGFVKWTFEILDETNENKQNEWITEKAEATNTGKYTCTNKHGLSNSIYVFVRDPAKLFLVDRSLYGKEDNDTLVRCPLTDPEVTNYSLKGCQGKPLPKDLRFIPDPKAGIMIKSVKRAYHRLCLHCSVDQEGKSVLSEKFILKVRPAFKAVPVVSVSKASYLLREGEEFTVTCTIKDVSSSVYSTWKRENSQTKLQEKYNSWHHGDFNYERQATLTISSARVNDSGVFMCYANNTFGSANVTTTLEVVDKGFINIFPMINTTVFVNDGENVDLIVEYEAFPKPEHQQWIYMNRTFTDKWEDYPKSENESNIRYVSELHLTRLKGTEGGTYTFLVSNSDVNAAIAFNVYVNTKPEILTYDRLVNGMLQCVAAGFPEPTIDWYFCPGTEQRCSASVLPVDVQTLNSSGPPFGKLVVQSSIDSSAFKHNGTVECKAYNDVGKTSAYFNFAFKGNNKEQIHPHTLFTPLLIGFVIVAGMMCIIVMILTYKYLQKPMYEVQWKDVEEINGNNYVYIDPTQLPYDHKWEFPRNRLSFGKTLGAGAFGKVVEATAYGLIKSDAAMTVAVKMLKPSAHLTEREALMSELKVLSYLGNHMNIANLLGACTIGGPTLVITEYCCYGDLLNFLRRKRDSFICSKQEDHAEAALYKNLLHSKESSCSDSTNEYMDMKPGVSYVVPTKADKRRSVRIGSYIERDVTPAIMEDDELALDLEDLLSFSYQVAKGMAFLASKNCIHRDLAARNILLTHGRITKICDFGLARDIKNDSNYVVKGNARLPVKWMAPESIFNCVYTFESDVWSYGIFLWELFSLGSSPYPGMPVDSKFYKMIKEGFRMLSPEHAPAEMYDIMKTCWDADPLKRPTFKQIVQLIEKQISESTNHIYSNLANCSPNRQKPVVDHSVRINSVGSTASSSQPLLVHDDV
# Protocol: as §1
# PLK3 = biological target: T25, PLK3 (Homo sapiens, UniProt Q9H4B4)
# T25 construct: purchased Eurofins Discovery (DiscoverX KINOMEscan scanMAX)
# Protocol: as §1
# NEK9 = biological target: T26, NEK9 (Homo sapiens, UniProt Q8TD19)
# T26 construct: purchased Eurofins Discovery (DiscoverX KINOMEscan scanMAX)
# Protocol: as §1
# [3] = biological target: T27, ABL1(Q252H)-nonphosphorylated (Homo sapiens, UniProt P00519, Q252H)
# T27 construct: purchased Eurofins Discovery (DiscoverX KINOMEscan scanMAX)
# Protocol: as §1
# MYO3A = biological target: T28, MYO3A (Homo sapiens, UniProt Q8NEV4)
# T28 construct: purchased Eurofins Discovery (DiscoverX KINOMEscan scanMAX)
# Protocol: as §1
# MET = biological target: T29, MET (Homo sapiens, UniProt P08581)
# T29 construct: purchased Eurofins Discovery (DiscoverX KINOMEscan scanMAX)
# Protocol: as §1
# MST2 = biological target: T30, MST2 (Homo sapiens, UniProt Q13188)
# T30 construct: purchased Eurofins Discovery (DiscoverX KINOMEscan scanMAX)
# Protocol: as §1
# PRKR = biological target: T31, PRKR (Homo sapiens, UniProt P19525)
# T31 construct: purchased Eurofins Discovery (DiscoverX KINOMEscan scanMAX)
# T31 sequence (P19525 whole entry): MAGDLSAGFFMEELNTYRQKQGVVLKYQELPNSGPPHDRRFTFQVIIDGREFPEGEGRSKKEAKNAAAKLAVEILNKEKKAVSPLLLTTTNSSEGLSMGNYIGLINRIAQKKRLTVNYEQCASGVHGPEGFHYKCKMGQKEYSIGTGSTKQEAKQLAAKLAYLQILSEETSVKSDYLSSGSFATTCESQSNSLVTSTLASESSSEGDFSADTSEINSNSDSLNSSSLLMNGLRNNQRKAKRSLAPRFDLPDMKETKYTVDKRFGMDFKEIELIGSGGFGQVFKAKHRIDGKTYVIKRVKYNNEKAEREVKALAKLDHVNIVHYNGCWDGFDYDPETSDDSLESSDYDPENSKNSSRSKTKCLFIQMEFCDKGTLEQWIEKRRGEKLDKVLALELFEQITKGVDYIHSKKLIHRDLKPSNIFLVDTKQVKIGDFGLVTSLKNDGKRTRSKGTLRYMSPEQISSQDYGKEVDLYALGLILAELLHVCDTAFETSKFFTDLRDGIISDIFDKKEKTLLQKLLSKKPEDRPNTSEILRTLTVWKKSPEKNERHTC
# Protocol: as §1
# MAST1 = biological target: T32, MAST1 (Homo sapiens, UniProt Q9Y2H9)
# T32 construct: purchased Eurofins Discovery (DiscoverX KINOMEscan scanMAX)
# Protocol: as §1
# SRPK3 = biological target: T33, SRPK3 (Homo sapiens, UniProt Q9UPE1)
# T33 construct: purchased Eurofins Discovery (DiscoverX KINOMEscan scanMAX)
# T33 sequence (Q9UPE1 whole entry): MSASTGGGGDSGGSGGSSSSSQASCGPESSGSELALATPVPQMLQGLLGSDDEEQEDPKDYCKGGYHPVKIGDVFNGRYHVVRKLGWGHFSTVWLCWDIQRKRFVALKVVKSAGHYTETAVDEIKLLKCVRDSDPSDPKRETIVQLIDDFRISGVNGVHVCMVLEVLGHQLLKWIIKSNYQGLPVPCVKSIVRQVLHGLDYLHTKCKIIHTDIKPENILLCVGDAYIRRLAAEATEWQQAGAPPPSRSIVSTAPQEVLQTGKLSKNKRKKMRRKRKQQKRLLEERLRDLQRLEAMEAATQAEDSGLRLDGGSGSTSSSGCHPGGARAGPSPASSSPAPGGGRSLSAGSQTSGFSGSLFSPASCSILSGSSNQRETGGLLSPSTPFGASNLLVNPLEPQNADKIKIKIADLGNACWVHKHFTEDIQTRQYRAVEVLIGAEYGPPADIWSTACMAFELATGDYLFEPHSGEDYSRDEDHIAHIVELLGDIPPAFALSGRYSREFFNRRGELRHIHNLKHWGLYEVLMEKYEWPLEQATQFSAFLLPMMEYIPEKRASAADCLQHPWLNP
# Protocol: as §1
compound,measurement,setting,value
Cc1cc(Nc2ccc(F)c(CC3(C(=O)N4CCC(F)(CN5CCN(c6ccc(N7CCC(=O)NC7=O)cn6)CC5)CC4)CCN(Cc4cccc(Cl)c4F)CC3)n2)n[nH]1 [SK5527],remaining binding at 0.1 µM,YANK3; 100 nM,86%
same,remaining binding at 1 µM,YANK3; 1000 nM,80%
same,remaining binding at 0.1 µM,NEK11; 100 nM,100%
same,remaining binding at 1 µM,NEK11; 1000 nM,100%
same,remaining binding at 0.1 µM,EPHB4; 100 nM,100%
same,remaining binding at 1 µM,EPHB4; 1000 nM,100%
same,remaining binding at 0.1 µM,RIOK2; 100 nM,93%
same,remaining binding at 1 µM,RIOK2; 1000 nM,64%
same,remaining binding at 0.1 µM,PHKG1; 100 nM,99%
same,remaining binding at 1 µM,PHKG1; 1000 nM,100%
same,remaining binding at 0.1 µM,DYRK1A; 100 nM,79%
same,remaining binding at 1 µM,DYRK1A; 1000 nM,80%
same,remaining binding at 0.1 µM,CAMKK1; 100 nM,100%
same,remaining binding at 1 µM,CAMKK1; 1000 nM,100%
same,remaining binding at 0.1 µM,WNK1; 100 nM,73%
same,remaining binding at 1 µM,WNK1; 1000 nM,77%
same,remaining binding at 0.1 µM,SNRK; 100 nM,71%
same,remaining binding at 1 µM,SNRK; 1000 nM,53%
same,remaining binding at 0.1 µM,PKMYT1; 100 nM,81%
same,remaining binding at 1 µM,PKMYT1; 1000 nM,58%
same,remaining binding at 0.1 µM,DCAMKL2; 100 nM,93%
same,remaining binding at 1 µM,DCAMKL2; 1000 nM,91%
same,remaining binding at 0.1 µM,MAP3K15; 100 nM,100%
same,remaining binding at 1 µM,MAP3K15; 1000 nM,81%
same,remaining binding at 0.1 µM,[1]; 100 nM,82%
same,remaining binding at 1 µM,[1]; 1000 nM,89%
same,remaining binding at 0.1 µM,HIPK4; 100 nM,85%
same,remaining binding at 1 µM,HIPK4; 1000 nM,81%
same,remaining binding at 0.1 µM,MET(M1250T); 100 nM,85%
same,remaining binding at 1 µM,MET(M1250T); 1000 nM,80%
same,remaining binding at 0.1 µM,PRKD1; 100 nM,100%
same,remaining binding at 1 µM,PRKD1; 1000 nM,100%
same,remaining binding at 0.1 µM,MLK2; 100 nM,100%
same,remaining binding at 1 µM,MLK2; 1000 nM,100%
same,remaining binding at 0.1 µM,EGFR(L858R); 100 nM,97%
same,remaining binding at 1 µM,EGFR(L858R); 1000 nM,83%
same,remaining binding at 0.1 µM,CIT; 100 nM,100%
same,remaining binding at 1 µM,CIT; 1000 nM,100%
same,remaining binding at 0.1 µM,PRKG2; 100 nM,86%
same,remaining binding at 1 µM,PRKG2; 1000 nM,78%
same,remaining binding at 0.1 µM,MET(Y1235D); 100 nM,86%
same,remaining binding at 1 µM,MET(Y1235D); 1000 nM,100%
same,remaining binding at 0.1 µM,CAMK2G; 100 nM,100%
same,remaining binding at 1 µM,CAMK2G; 1000 nM,100%
same,remaining binding at 0.1 µM,[2]; 100 nM,79%
same,remaining binding at 1 µM,[2]; 1000 nM,81%
same,remaining binding at 0.1 µM,"KIT(V559D,V654A); 100 nM",100%
same,remaining binding at 1 µM,"KIT(V559D,V654A); 1000 nM",97%
same,remaining binding at 0.1 µM,PLK3; 100 nM,100%
same,remaining binding at 1 µM,PLK3; 1000 nM,86%
same,remaining binding at 0.1 µM,NEK9; 100 nM,78%
same,remaining binding at 1 µM,NEK9; 1000 nM,81%
same,remaining binding at 0.1 µM,[3]; 100 nM,63%
same,remaining binding at 1 µM,[3]; 1000 nM,15%
same,remaining binding at 0.1 µM,MYO3A; 100 nM,100%
same,remaining binding at 1 µM,MYO3A; 1000 nM,100%
same,remaining binding at 0.1 µM,MET; 100 nM,94%
same,remaining binding at 1 µM,MET; 1000 nM,81%
same,remaining binding at 0.1 µM,MST2; 100 nM,76%
same,remaining binding at 1 µM,MST2; 1000 nM,55%
same,remaining binding at 0.1 µM,PRKR; 100 nM,100%
same,remaining binding at 1 µM,PRKR; 1000 nM,91%
same,remaining binding at 0.1 µM,MAST1; 100 nM,72%
same,remaining binding at 1 µM,MAST1; 1000 nM,100%
same,remaining binding at 0.1 µM,SRPK3; 100 nM,100%
same,remaining binding at 1 µM,SRPK3; 1000 nM,97%
